# Patent US9944740B2, “Sugar containing, amphiphilic copolymers” (REGENTS OF THE UNIVERSITY OF MINNESOTA, priority 2013, dated 2018)
# Experiments:
# [1] = Probucol dissolution study (spray dried dispersions or crystalline API) in phosphate buffer pH 6.5 with simulated intestinal fluid powder, 37° C., HPLC; format: physicochemical; details: pH 6.5, fassif, thermodynamic from solid
# Description: (§1) Samples (either spray dried dispersions or crystalline API as received) were weighed into 2.0 mL conical microcentrifuge tubes in duplicate. Phosphate buffer solution (82 mM sodium chloride, 20 mM sodium phosphate dibasic, 47 mM potassium phosphate monobasic, 0.5 wt % simulated intestinal fluid powder, pH 6.5) at 37° C. was added in an amount that would produce a final concentration of drug of 1000 mg/L if all material was fully dissolved (e.g., 7.2 mg of spray dried dispersion consisting of 1.8 mg griseofulvin and 5.4 mg polymer was diluted with 1.8 mL buffer solution). Samples were vortexed 1 min and set in an isothermal aluminum sample holder set at 37° C. At each time point, samples were centrifuged 1 min at >13,000×g (g=gravitational force on earth), and a 50 μl aliquot was removed and diluted with 250 μl methanol. The samples were again vortexed 30 s and held at 37° C. until the next time point. Drug concentration in each aliquot was determined by reverse phase HPLC.
# Probucol and phenytoin concentrations were quantified using a Agilent 1260 Infinity Quaternary HPLC equipped. […] A 10 μL aliquot of sample was injected, and the column effluent was detected at 241 nm for probucol (eluted at 2.90 min) and 225 nm for phenytoin (eluted at 1.40 min) with a UV detector (1260 Infinity Multiple Wavelength Detector, Agilent). […]
# [2] = Phenytoin dissolution study (spray dried dispersions or crystalline API) in phosphate buffer pH 6.5 with simulated intestinal fluid powder, 37° C., HPLC; format: physicochemical; details: crystalline phenytoin
# Description: as §1
# Probucol and phenytoin concentrations were quantified using a Agilent 1260 Infinity Quaternary HPLC equipped. The HPLC consisted of a reversed-phase EC-C18 column (Poroshell 120, 4.6×50 mm, 2.7 μm, Agilent, USA). The mobile phase was acetonitrile: water 96:4 for probucol and acetonitrile: water 40:60 for phenytoin, and the flow rate was 1.0 mL/min. A 10 μL aliquot of sample was injected, and the column effluent was detected at 241 nm for probucol (eluted at 2.90 min) and 225 nm for phenytoin (eluted at 1.40 min) with a UV detector (1260 Infinity Multiple Wavelength Detector, Agilent). The standard curve linearity was verified from 0.1 to 1000 μg/mL with an r^2 value of at least 0.999.
# Two different drugs, probucol and phenytoin, were formulated at different weight percent, using the polymers disclosed herein (see Table 1 for polymer sample numbers). […]
Structure (SMILES),solubility [1],Concentration (phenytoin dissolution control) ([2]; Time 0),Concentration (phenytoin dissolution control) ([2]; Time 4),Concentration (phenytoin dissolution control) ([2]; Time 10),Concentration (phenytoin dissolution control) ([2]; Time 20),Concentration (phenytoin dissolution control) ([2]; Time 40),Concentration (phenytoin dissolution control) ([2]; Time 90),Concentration (phenytoin dissolution control) ([2]; Time 180),Concentration (phenytoin dissolution control) ([2]; Time 360)
CC(C)(Sc1cc(C(C)(C)C)c(O)c(C(C)(C)C)c1)Sc1cc(C(C)(C)C)c(O)c(C(C)(C)C)c1 [probucol],4 µg/mL,,,,,,,,
"O=C1NC(=O)C(c2ccccc2)(c2ccccc2)N1 [Phenytoin, phenytoin]",,0 ng/mL,38000 ng/mL,46000 ng/mL,45000 ng/mL,48000 ng/mL,51000 ng/mL,45000 ng/mL,48000 ng/mL
